From ChEMBL document CHEMBL1146012, “5-benzylidene-hydantoins as new EGFR inhibitors with antiproliferative activity” (Bioorg Med Chem Lett, 2006)

Target: Epidermal growth factor receptor (Homo sapiens, UniProt P00533)
Test: Inhibition of EGFR-mediated polyGAT phosphorylation at 10 uM

Chain of Epidermal growth factor receptor (P00533 whole entry): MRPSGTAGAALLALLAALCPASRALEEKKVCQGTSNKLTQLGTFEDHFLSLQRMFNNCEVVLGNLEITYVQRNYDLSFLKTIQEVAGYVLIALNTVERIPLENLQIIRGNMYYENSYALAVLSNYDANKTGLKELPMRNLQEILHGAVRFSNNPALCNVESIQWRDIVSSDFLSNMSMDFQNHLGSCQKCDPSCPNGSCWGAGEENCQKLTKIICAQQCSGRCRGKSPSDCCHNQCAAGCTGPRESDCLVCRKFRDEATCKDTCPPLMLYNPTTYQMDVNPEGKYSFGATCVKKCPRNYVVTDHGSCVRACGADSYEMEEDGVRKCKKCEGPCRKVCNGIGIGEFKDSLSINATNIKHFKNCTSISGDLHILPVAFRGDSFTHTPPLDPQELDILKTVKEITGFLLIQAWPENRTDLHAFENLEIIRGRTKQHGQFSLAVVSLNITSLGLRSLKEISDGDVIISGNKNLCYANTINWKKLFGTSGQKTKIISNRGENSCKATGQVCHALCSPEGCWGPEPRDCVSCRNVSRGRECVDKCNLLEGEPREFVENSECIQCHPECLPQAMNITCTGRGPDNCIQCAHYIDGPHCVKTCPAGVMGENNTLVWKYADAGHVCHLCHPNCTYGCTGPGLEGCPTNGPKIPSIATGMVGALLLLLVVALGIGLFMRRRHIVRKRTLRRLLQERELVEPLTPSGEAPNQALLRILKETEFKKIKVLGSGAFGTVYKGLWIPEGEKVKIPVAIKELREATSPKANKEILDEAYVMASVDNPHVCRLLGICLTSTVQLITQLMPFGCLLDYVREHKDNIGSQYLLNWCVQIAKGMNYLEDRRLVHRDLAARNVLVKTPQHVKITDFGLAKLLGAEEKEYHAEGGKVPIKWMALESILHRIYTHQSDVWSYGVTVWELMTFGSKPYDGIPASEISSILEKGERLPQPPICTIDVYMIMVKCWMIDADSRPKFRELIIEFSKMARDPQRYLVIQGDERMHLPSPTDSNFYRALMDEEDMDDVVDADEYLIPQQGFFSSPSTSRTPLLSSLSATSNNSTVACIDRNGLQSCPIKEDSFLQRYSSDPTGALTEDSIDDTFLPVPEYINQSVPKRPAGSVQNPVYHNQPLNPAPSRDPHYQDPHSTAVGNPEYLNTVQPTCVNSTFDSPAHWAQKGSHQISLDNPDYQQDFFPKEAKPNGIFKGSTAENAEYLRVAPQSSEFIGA

O=C1NC(=O)N(CCc2ccccc2)/C1=C/c1ccc(O)cc1
IC50: 710 nM
